Four molecules from US20070208031A1, “Substituted Diketopiperazines as Oxytocin Antagonists” (priority 2004, published 2007) can be followed below.

Data set [1] in a line: In vitro intrinsic clearance in microsomes (Assay 3), rat. It is filed as in vitro ADME. The note with it: pH 7.4; heading: Assay 3 - Microsomal Cl; rat female microsomes, 0.5 uM compound, 0.5 mg/mL protein. The protocol:
(§1) Determination of In Vitro Intrinsic Clearance in Microsomes
(§2) NADP regeneration buffer for use in incubations was prepared fresh on the assay day. It contained 7.8 mg glucose-6-phosphate (mono-sodium salt), 1.7 mg NADP and 6 Units glucose-6-phosphate dehydrogenase per 1 mL of 2% sodium bicarbonate. Microsomes (human, female; cynomolgus monkey, female; dog, female; rat, female) were prepared in pH 7.4 phosphate buffer and contained 0.625 mg protein/mL. Unless stated, all subsequent steps were performed by a Tecan Genesis 150/8 RSP. A 1.25 mM stock solution of the compounds was prepared in Acetonitrile/water (1:1). 25 ul of the 1.25 mM stock solution was added to 600 ul of Acetonitrile/water (1:1) to give a 50 uM solution. For each species, the 50 uM solutions (10 uL) were added to microsomes (790 uL) in a microplate (Porvair, 96 deepwell, square).
(§3) 400 uL of the microsomal solution containing the compound was transferred to a microplate (Porvair, 96 deepwell, round) and was pre-warmed at 37° C. for five minutes prior to initiation of incubations. All incubations were initiated by addition of 100 uL of NADP regeneration system to the pre-warmed microsomes. The mixtures were incubated at 37° C. in a Techne heating block. Following 0, 3, 6, 12 and 30 minutes incubation, 20 uL aliquots were taken and added to 100 uL of acetonitrile containing internal standard.
(§4) For determination of the rate of metabolism, incubations were performed at a compound concentration of 0.5 uM and a protein concentration of 0.5 mg/mL. The concentration of solvent in the incubation was 0.5%.
(§5) Test compound concentrations were determined by LC/MS/MS; results were reported as analyte:internal standard peak area ratios.
(§6) The rate of disappearance was calculated by fitting a single exponential decay to the concentration-time curve using Excel and intrinsic clearance was calculated using the following formula: [formula] Results

The nature of data set [2]: In vitro intrinsic clearance in microsomes (Assay 3), dog. Type of data set: in vitro ADME. The note with it: pH 7.4; heading: Assay 3 - Microsomal Cl; dog female microsomes, 0.5 uM compound, 0.5 mg/mL protein. The protocol:
as §1, §2, §3, §4, §5, §6

Data set [3] can be described thus: In vitro intrinsic clearance in microsomes (Assay 3), cynomolgus monkey. It is filed as in vitro ADME. The note with it: pH 7.4; heading: Assay 3 - Microsomal Cl, Cyno; cynomolgus monkey female microsomes, 0.5 uM compound, 0.5 mg/mL protein. As for the experimental part: as §1, §2, §3, §4, §5, §6
Data set [4] is described as follows: In vitro intrinsic clearance in microsomes (Assay 3), human. The note with it: pH 7.4; heading: Assay 3 - Microsomal Cl; human female microsomes, 0.5 uM compound, 0.5 mg/mL protein. Type of data set: in vitro ADME. The protocol:
as §1, §2, §3, §4, §5, §6

For data set [5], the target named is T1, human recombinant oxytocin receptors (Homo sapiens, UniProt P30559).
T1 construct: expressed in transfected cells; host or cells: CHO cells (membrane preparation)
T1 sequence (P30559 1-389): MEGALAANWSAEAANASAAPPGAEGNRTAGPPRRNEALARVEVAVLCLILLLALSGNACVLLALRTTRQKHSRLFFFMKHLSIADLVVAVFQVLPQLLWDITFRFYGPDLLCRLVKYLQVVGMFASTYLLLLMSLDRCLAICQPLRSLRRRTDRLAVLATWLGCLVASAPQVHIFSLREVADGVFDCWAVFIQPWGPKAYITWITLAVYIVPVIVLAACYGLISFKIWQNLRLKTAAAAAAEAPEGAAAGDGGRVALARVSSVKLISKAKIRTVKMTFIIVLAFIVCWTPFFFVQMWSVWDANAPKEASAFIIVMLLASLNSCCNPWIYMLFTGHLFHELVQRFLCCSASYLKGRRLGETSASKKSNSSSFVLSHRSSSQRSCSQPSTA
Briefly: Oxytocin binding assay, [3H]-oxytocin competition on CHO membranes (Assay 2). The note with it: ~2.4 nM [3H]-oxytocin, Cheng-Prusoff, read-out: pKi (Assay 2) (converted). As for the experimental part: Membranes were prepared from CHO cells expressing human recombinant oxytocin receptors. The membrane preparation was frozen in aliquots at −70° C. until used.
Membranes (˜50 ug) were incubated in 200 ul of assay buffer (50 mM Tris, 10 mM MgCl2, and 0.1% bovine serum albumin, pH 7.5) containing ˜2.4 nM of [3H]-oxytocin in the absence (total binding) or presence (non-specific binding) of 1 uM unlabeled oxytocin and increasing concentrations of the compounds in Examples 1 and 2 or comparator compounds. Incubations were performed at room temperature for 60 minutes. The reactions were stopped with 3 ml of ice cold buffer and filtered through Whatman GF/C filter paper presoaked in 0.3% polyethylenimine. The filters were washed 4 times with 3 ml buffer using a Brandel cell harvester. The filters were counted in 3 ml Ready Safe scintillation fluid (Beckman).
Specific binding represented approximately 90% of total binding.
IC50 values were determined from competition binding experiments using non-linear regression analysis (GraphPad) and converted to Ki using the method of Cheng and Prusoff, 1974. Data are reported as mean values.

The target in data set [6] is T2, recombinant human Oxytocin-1 (hOT) receptor (Homo sapiens, UniProt P30559).
T2 construct: expressed in transfected cells
T2 sequence (P30559 1-389): T1 sequence (P30559 1-389)
Briefly: Determination of antagonist affinity at human Oxytocin-1 receptors using FLIPR (Assay 1). Type of data set: cell-based. The note with it: CHO-hOT cells, FLIPR calcium response, oxytocin at EC80; read-out: fpki (Assay 1). As for the experimental part: Determination of Antagonist Affinity at Human Oxytocin-1 Receptors using FLIPR
Adherent Chinese Hamster Ovary (CHO) cells, stably expressing the recombinant human Oxytocin-1 (hOT) receptor, were maintained in culture in DMEM:F12 medium (Sigma, cat no D6421), supplemented with 10% heat inactivated foetal calf serum (Gibco/lnvitrogen, cat. no.01000-147), 2 mM L-glutamine (Gibco/lnvitrogen, cat. no. 25030-024) and 0.2 mg/ml G418 (Gibco/lnvitrogen, cat no. 10131-027). Cells were grown as monolayers under 95%:5% air:CO2 at 37° C. and passaged every 3-4 days using TrypLE™ Express (Gibco/lnvitrogen, cat no. 12604-013).
Measurement of [Ca^2+]1 using the FLIPR™
CHO-hOT cells were seeded into black walled clear-base 384-well plates (Nunc) at a density of 10,000 cells per well in culture medium as described above and maintained overnight (95%:5% air:CO2 at 37° C.). After removal of culture medium, cells were incubated for 1 h at 37° C. in Tyrode's medium (NaCl, 145 mM; KCl, 2.5 mM; HEPES, 10 mM; Glucose, 10 mM; MgCl2, 1.2 mM; CaCl2, 1.5 mM) containing probenacid (0.7 mg/ml), the cytoplasmic calcium indicator, Fluo-4 (4 uM; Teflabs, USA) and the quenching agent Brilliant Black (250 uM; Molecular Devices, UK). Cells were then incubated for an additional 30min at 37° C. with either buffer alone or buffer containing OT antagonist, before being placed into a FLIPR™ (Molecular Devices, UK) to monitor cell fluorescence (λex=488 nm, λEM=540 nm) before and after the addition of a submaximal concentration of oxytocin (EC80).
Functional responses using FLIPR were analysed using Activity Base Version 5.0.10.

In the case of `CC(C)C[C@@H]1C(=O)N[C@H](C2Cc3ccccc3C2)C(=O)N1[C@@H](C(=O)N(C)C)c1ccc2[nH]ncc2c1` [Comparator compound X, (2R)-2-[(3R,6R)-3-(2,3-dihydro-1H-inden-2-yl)-6-isobutyl-2,5-dioxopiperazin-1-yl]-2-(1H-indazol-5-yl)-N,N-dimethylethanamide, reference compound], the microsomal CLint at 0.5 uM in data set [1] is 9 to 15 mL/min/g; in data set [2], 16 to 20 mL/min/g; in data set [3], greater than 31 mL/min/g; in data set [4], greater than 31 mL/min/g.

In the case of `CC(C)C[C@@H]1C(=O)N[C@H](C2Cc3ccccc3C2)C(=O)N1[C@@H](C(=O)N(C)C)c1ccc(F)cc1F` [Comparator compound Y, (2R)-2-(2,4-difluorophenyl)-2-[(3R,6R)-3-(2,3-dihydro-1H-inden-2-yl)-6-isobutyl-2,5-dioxopiperazin-1-yl]-N,N-dimethylethanamide, reference compound], the microsomal CLint at 0.5 uM in data set [1] fell in the range of 1 to 8 mL/min/g; in data set [2] it was 1 to 8 mL/min/g; in data set [3] it was 21 to 30 mL/min/g; in data set [4], 16 to 20 mL/min/g. Besides, the Ki in data set [5] was 0.0398 to 0.126 nM; in data set [6], 2 to 3.16 nM.

For the molecule `CC[C@H](C)[C@@H]1C(=O)N[C@H](C2Cc3ccccc3C2)C(=O)N1[C@@H](C(=O)NC)c1ccc2c(cnn2C)c1` [Example 1, (2R)-2-{(3R,6R)-3-(2,3-Dihydro-1H-inden-2-yl)-6-[(1S)-1-methylpropyl]-2,5-dioxo-1-piperazinyl}-N-methyl-2-(1-methyl-1H-indazol-5-yl)ethanamide], the microsomal CLint at 0.5 uM in data set [1] lay within 1 to 8 mL/min/g; in data set [2], 1 to 8 mL/min/g; in data set [3], 9 to 15 mL/min/g; in data set [4], 1 to 8 mL/min/g. In addition, the figures for the Ki in data set [5] and in data set [6] were 0.0398 to 0.126 nM and 2 to 3.16 nM, respectively.

Consider `CC[C@H](C)[C@@H]1C(=O)N[C@H](C2Cc3ccccc3C2)C(=O)N1[C@@H](C(=O)N(C)C)c1ccc2c(cnn2C)c1` [Example 2, (2R)-2-{(3R,6R)-3-(2,3-Dihydro-1H-inden-2-yl)-6-[(1S)-1-methylpropyl]-2,5-dioxo-1-piperazinyl}-N,N-dimethyl-2-(1-methyl-1H-indazol-5-yl)ethanamide], for which the microsomal CLint at 0.5 uM in data set [1] was 1 to 8 mL/min/g; in data set [2] it was 1 to 8 mL/min/g; in data set [3], 9 to 15 mL/min/g; in data set [4], 1 to 8 mL/min/g. Also, the Ki was 0.0398 to 0.126 nM in data set [5] and 2 to 3.16 nM in data set [6].

In general, microsomal CLint refers to a measure of how fast metabolising enzymes remove a compound, apart from limits set by blood flow.
